According to patent US9023789B2, “Amylin analogs and pharmaceutical compositions thereof” (Novo Nordisk A/S, priority 2012, dated 2015):
Numbered stars: 1 amine (or outer) side, 2 acyl side, 3 side chain; on linkers, the order of the positions; unused ones are H or OH. Bridge positions count the residues as written; N and C are the ends. Side chains are listed from the residue outwards. Peptide text beside a SMILES is read from it. * marks the point of attachment. C20 diacid = O=C(O)CCCCCCCCCCCCCCCCCCC(=O)*; γGlu = O=C(O)[C@H](CCC(=O)[*:2])N[*:1]

Biological target: T1, human calcitonin (a) receptor in BHK570 cells (Homo sapiens, UniProt P30988)
T1 construct: expressed in transfected cells
T1 sequence (P30988 25-474): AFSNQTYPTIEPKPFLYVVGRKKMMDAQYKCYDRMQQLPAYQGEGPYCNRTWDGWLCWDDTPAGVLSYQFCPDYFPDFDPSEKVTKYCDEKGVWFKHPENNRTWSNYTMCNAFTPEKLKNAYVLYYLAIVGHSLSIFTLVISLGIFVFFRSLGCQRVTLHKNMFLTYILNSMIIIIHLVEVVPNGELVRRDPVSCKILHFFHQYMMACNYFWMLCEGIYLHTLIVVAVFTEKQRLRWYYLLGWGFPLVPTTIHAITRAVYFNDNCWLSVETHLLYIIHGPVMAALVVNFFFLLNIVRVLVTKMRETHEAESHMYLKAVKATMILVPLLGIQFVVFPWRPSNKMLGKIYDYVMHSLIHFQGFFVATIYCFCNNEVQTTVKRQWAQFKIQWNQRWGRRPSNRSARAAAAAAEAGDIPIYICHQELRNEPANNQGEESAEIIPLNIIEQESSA
Experiment: ASSAY (II)a functional assay, human calcitonin receptor (CRE luciferase)
Assay type: cell-based
Conditions: read-out: hCTR funct. EC50
How it was run: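 Cells were seeded and cultured overnight, then incubated with standard or sample for 3 h at 37° C in serum-containing medium at pH 7.4. The medium was then swapped for PBS, LucLite was added for 30 min at room temperature, and luminescence was recorded. Cells were BHK with CRE-luc and calcitonin receptor, ± RAMP-3.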

| Compound | EC50 [nM] |
| --- | --- |
| CC[C@H](C)[C@H](NC(=O)[C@H](C)NC(=O)CNC(=O)[C@H](Cc1ccccc1)NC(=O)[C@H](CC(N)=O)NC(=O)[C@@H]1CCCN1C(=O)[C@H](CO)NC(=O)[C@H](CO)NC(=O)[C@H](Cc1c[nH]cn1)NC(=O)[C@H](CCCNC(=N)N)NC(=O)[C@H](CC(C)C)NC(=O)[C@H](Cc1ccccc1)NC(=O)[C@H](CC(N)=O)NC(=O)[C@H](C)NC(=O)[C@H](CC(C)C)NC(=O)[C@H](CCCNC(=N)N)NC(=O)[C@H](CCC(N)=O)NC(=O)[C@@H](NC(=O)[C@H](C)NC(=O)[C@@H]1CSSC[C@H](NC(=O)[C@H](CCCCN)NC(=O)CC[C@H](NC(=O)CCCCCCCCCCCCCCCCCCC(=O)O)C(=O)O)C(=O)N[C@@H](CC(N)=O)C(=O)N[C@@H]([C@@H](C)O)C(=O)N[C@@H](C)C(=O)N[C@@H]([C@@H](C)O)C(=O)N1)[C@@H](C)O)C(=O)N1CCC[C@H]1C(=O)N[C@@H](CO)C(=O)N[C@@H](CO)C(=O)N[C@H](C(=O)N[C@@H](CC(N)=O)C(=O)N[C@H](C(=O)NCC(=O)N[C@@H](CCCNC(=N)N)C(=O)N[C@@H](CC(N)=O)C(=O)N[C@H](C(=O)N[C@@H](Cc1ccc(O)cc1)C(N)=O)[C@@H](C)O)C(C)C)[C@@H](C)O [Example 39] ({C20 diacid-γGlu}-KCNTATCATQRLANFLRHSSPNFGAIPSSTNVGRNTY-NH2; disulfide 2-7) | 2.52 |
| CC[C@H](C)[C@H](NC(=O)[C@H](C)NC(=O)CNC(=O)[C@H](Cc1ccccc1)NC(=O)[C@H](CC(N)=O)NC(=O)[C@@H]1CCCN1C(=O)[C@H](CO)NC(=O)[C@H](CO)NC(=O)[C@H](Cc1c[nH]cn1)NC(=O)[C@H](CCCNC(=N)N)NC(=O)[C@H](CC(C)C)NC(=O)[C@H](Cc1ccccc1)NC(=O)[C@H](CC(N)=O)NC(=O)[C@H](C)NC(=O)[C@H](CC(C)C)NC(=O)[C@H](CCCNC(=N)N)NC(=O)[C@H](CCC(N)=O)NC(=O)[C@@H](NC(=O)[C@H](C)NC(=O)[C@@H]1CSSC[C@H](NC(=O)[C@@H](N)CCCCNC(=O)CC[C@H](NC(=O)CC[C@H](NC(=O)CCCCCCCCCCCCCCCCCCC(=O)O)C(=O)O)C(=O)O)C(=O)N[C@@H](CC(N)=O)C(=O)N[C@@H]([C@@H](C)O)C(=O)N[C@@H](C)C(=O)N[C@@H]([C@@H](C)O)C(=O)N1)[C@@H](C)O)C(=O)N1CCC[C@H]1C(=O)N[C@@H](CO)C(=O)N[C@@H](CO)C(=O)N[C@H](C(=O)N1CCC[C@H]1C(=O)N[C@H](C(=O)NCC(=O)N1CCC[C@H]1C(=O)N[C@@H](CCCNC(=N)N)C(=O)N[C@H](C(=O)N[C@@H](Cc1ccc(O)cc1)C(N)=O)[C@@H](C)O)C(C)C)[C@@H](C)O [Example 119] (H-K([γGlu-γGlu-C20 diacid])CNTATCATQRLANFLRHSSPNFGAIPSSTPVGPRTY-NH2; disulfide 2-7) | 8.66 |
| CC[C@H](C)[C@H](NC(=O)[C@H](C)NC(=O)CNC(=O)[C@H](Cc1ccccc1)NC(=O)[C@H](CC(N)=O)NC(=O)[C@@H]1CCCN1C(=O)[C@H](CO)NC(=O)[C@H](CO)NC(=O)[C@H](Cc1c[nH]cn1)NC(=O)[C@H](CCCNC(=N)N)NC(=O)[C@H](CC(C)C)NC(=O)[C@H](Cc1ccccc1)NC(=O)[C@H](Cc1c[nH]cn1)NC(=O)[C@H](C)NC(=O)[C@H](CC(C)C)NC(=O)[C@H](CCCNC(=N)N)NC(=O)[C@H](CCC(N)=O)NC(=O)[C@@H](NC(=O)[C@H](C)NC(=O)[C@@H]1CSSC[C@H](NC(=O)[C@@H](N)CCCCNC(=O)CC[C@H](NC(=O)CCCCCCCCCCCCCCCCCCC(=O)O)C(=O)O)C(=O)N[C@@H](CC(N)=O)C(=O)N[C@@H]([C@@H](C)O)C(=O)N[C@@H](C)C(=O)N[C@@H]([C@@H](C)O)C(=O)N1)[C@@H](C)O)C(=O)N1CCC[C@H]1C(=O)N[C@@H](CO)C(=O)N[C@@H](CO)C(=O)N[C@H](C(=O)N[C@@H](CC(N)=O)C(=O)N[C@H](C(=O)NCC(=O)N1CCC[C@H]1C(=O)N[C@@H](CC(N)=O)C(=O)N[C@H](C(=O)N1CCC[C@H]1C(N)=O)[C@@H](C)O)C(C)C)[C@@H](C)O [Example 115] (H-K([γGlu-C20 diacid])CNTATCATQRLAHFLRHSSPNFGAIPSSTNVGPNTP-NH2; disulfide 2-7 (inferred); N-terminus assumed) | 0.04 |
| CC[C@H](C)[C@H](NC(=O)[C@H](C)NC(=O)CNC(=O)[C@H](Cc1ccccc1)NC(=O)[C@H](CC(N)=O)NC(=O)[C@@H]1CCCN1C(=O)[C@H](CO)NC(=O)[C@H](CO)NC(=O)[C@H](Cc1c[nH]cn1)NC(=O)[C@H](CCCNC(=N)N)NC(=O)[C@H](CC(C)C)NC(=O)[C@H](Cc1ccccc1)NC(=O)[C@H](CC(N)=O)NC(=O)[C@H](C)NC(=O)[C@H](CC(C)C)NC(=O)[C@H](CCCNC(=N)N)NC(=O)[C@H](CCC(N)=O)NC(=O)[C@@H](NC(=O)[C@H](C)NC(=O)[C@@H]1CSSC[C@H](NC(=O)[C@@H](N)CCCCNC(=O)CC[C@H](NC(=O)CCCCCCCCCCCCCCCCCCC(=O)O)C(=O)O)C(=O)N[C@@H](CC(N)=O)C(=O)N[C@@H]([C@@H](C)O)C(=O)N[C@@H](C)C(=O)N[C@@H]([C@@H](C)O)C(=O)N1)[C@@H](C)O)C(=O)N1CCC[C@H]1C(=O)N[C@@H](CO)C(=O)N[C@@H](CO)C(=O)N[C@H](C(=O)N[C@@H](CC(N)=O)C(=O)N[C@H](C(=O)NCC(=O)N[C@@H](CO)C(=O)N[C@@H](CCCCN)C(=O)N[C@H](C(=O)N[C@@H](Cc1ccc(O)cc1)C(N)=O)[C@@H](C)O)C(C)C)[C@@H](C)O [Example 35] (H-K([γGlu-C20 diacid])CNTATCATQRLANFLRHSSPNFGAIPSSTNVGSKTY-NH2; disulfide 2-7; N-terminus assumed) | 5.46 |

More lines, in order of falling EC50, values ahead:

| EC50 [nM] | Compound |
| --- | --- |
| 0.887 | CC[C@H](C)[C@H](NC(=O)[C@H](C)NC(=O)CNC(=O)[C@H](Cc1ccccc1)NC(=O)[C@H](CC(N)=O)NC(=O)[C@@H]1CCCN1C(=O)[C@H](CO)NC(=O)[C@H](CO)NC(=O)[C@H](Cc1c[nH]cn1)NC(=O)[C@H](CCCNC(=N)N)NC(=O)[C@H](CC(C)C)NC(=O)[C@H](Cc1ccccc1)NC(=O)[C@H](CO)NC(=O)[C@H](C)NC(=O)[C@H](CC(C)C)NC(=O)[C@H](CCCNC(=N)N)NC(=O)[C@H](CCC(N)=O)NC(=O)[C@@H](NC(=O)[C@H](C)NC(=O)[C@@H]1CSSC[C@H](NC(=O)[C@@H](N)CCCCNC(=O)CC[C@H](NC(=O)CC[C@H](NC(=O)CCCCCCCCCCCCCCCCCCC(=O)O)C(=O)O)C(=O)O)C(=O)N[C@@H](CC(N)=O)C(=O)N[C@@H]([C@@H](C)O)C(=O)N[C@@H](C)C(=O)N[C@@H]([C@@H](C)O)C(=O)N1)[C@@H](C)O)C(=O)N1CCC[C@H]1C(=O)N[C@@H](CO)C(=O)N[C@@H](CO)C(=O)N[C@H](C(=O)N[C@@H](CC(N)=O)C(=O)N[C@H](C(=O)NCC(=O)N1CCC[C@H]1C(=O)N[C@@H](CCC(=O)O)C(=O)N[C@H](C(=O)N[C@@H](Cc1ccc(O)cc1)C(N)=O)[C@@H](C)O)C(C)C)[C@@H](C)O [Example 120] (H-K([γGlu-γGlu-C20 diacid])CNTATCATQRLASFLRHSSPNFGAIPSSTNVGPETY-NH2; disulfide 2-7 (inferred); N-terminus assumed) |
| 0.112 | CC[C@H](C)[C@H](NC(=O)[C@H](C)NC(=O)CNC(=O)[C@H](Cc1ccccc1)NC(=O)[C@H](CC(N)=O)NC(=O)[C@@H]1CCCN1C(=O)[C@H](CO)NC(=O)[C@H](CO)NC(=O)[C@H](Cc1c[nH]cn1)NC(=O)[C@H](CCCNC(=N)N)NC(=O)[C@H](CC(C)C)NC(=O)[C@H](Cc1ccccc1)NC(=O)[C@H](CCC(=O)O)NC(=O)[C@H](C)NC(=O)[C@H](CC(C)C)NC(=O)[C@H](CCCNC(=N)N)NC(=O)[C@H](CCC(N)=O)NC(=O)[C@@H](NC(=O)[C@H](C)NC(=O)[C@@H]1CSSC[C@H](NC(=O)[C@H](CCCCN)NC(=O)CC[C@H](NC(=O)CCCCCCCCCCCCCCCCCCC(=O)O)C(=O)O)C(=O)N[C@@H](CC(N)=O)C(=O)N[C@@H]([C@@H](C)O)C(=O)N[C@@H](C)C(=O)N[C@@H]([C@@H](C)O)C(=O)N1)[C@@H](C)O)C(=O)N1CCC[C@H]1C(=O)N[C@@H](CO)C(=O)N[C@@H](CO)C(=O)N[C@H](C(=O)N[C@@H](CC(N)=O)C(=O)N[C@H](C(=O)NCC(=O)N[C@@H](CO)C(=O)N[C@@H](CC(=O)O)C(=O)N[C@H](C(=O)N1CCC[C@H]1C(N)=O)[C@@H](C)O)C(C)C)[C@@H](C)O [Example 11] ({C20 diacid-γGlu}-KCNTATCATQRLAEFLRHSSPNFGAIPSSTNVGSDTP-NH2; disulfide 2-7 (inferred)) |
| 0.087 | CC[C@H](C)[C@H](NC(=O)[C@H](C)NC(=O)CNC(=O)[C@H](Cc1ccccc1)NC(=O)[C@H](CC(N)=O)NC(=O)[C@@H]1CCCN1C(=O)[C@H](CO)NC(=O)[C@H](CO)NC(=O)[C@H](Cc1c[nH]cn1)NC(=O)[C@H](CCCNC(=N)N)NC(=O)[C@H](CC(C)C)NC(=O)[C@H](Cc1ccccc1)NC(=O)[C@H](CCC(=O)O)NC(=O)[C@H](C)NC(=O)[C@H](CC(C)C)NC(=O)[C@H](CCCNC(=N)N)NC(=O)[C@H](CCC(N)=O)NC(=O)[C@@H](NC(=O)[C@H](C)NC(=O)[C@@H]1CSSC[C@H](NC(=O)[C@H](CCCCN)NC(=O)CC[C@H](NC(=O)CCCCCCCCCCCCCCCCCCC(=O)O)C(=O)O)C(=O)N[C@@H](CC(N)=O)C(=O)N[C@@H]([C@@H](C)O)C(=O)N[C@@H](C)C(=O)N[C@@H]([C@@H](C)O)C(=O)N1)[C@@H](C)O)C(=O)N1CCC[C@H]1C(=O)N[C@@H](CO)C(=O)N[C@@H](CO)C(=O)N[C@H](C(=O)N[C@@H](CC(N)=O)C(=O)N[C@H](C(=O)NCC(=O)N[C@@H](CO)C(=O)N[C@@H](CC(N)=O)C(=O)N[C@H](C(=O)N1CCC[C@H]1C(N)=O)[C@@H](C)O)C(C)C)[C@@H](C)O [Example 8] ({C20 diacid-γGlu}-KCNTATCATQRLAEFLRHSSPNFGAIPSSTNVGSNTP-NH2; disulfide 2-7) |
